Assay results from patent publication US10231954B2, “Neurodegenerative therapies” (LYTIX BIOPHARMA AS, priority 2014, dated 2019).

Tests used:
Assay type in all cases: biochemical
MKK1 = MKK1 (Homo sapiens, UniProt Q02750); assay: Kinase profiling MKK1; settings: 100 micromolar inhibitor concentration, 100 is no change; for remaining activity at 100 µM: read-out: residual kinase activity, MKK1
Source text: (§1) Any value less that 25 is considered to be highly significant inhibition.

MKK2 = MKK2 (Homo sapiens, UniProt P36507); assay: Kinase profiling MKK2; settings: 100 micromolar inhibitor concentration, 100 is no change; for remaining activity at 100 µM: read-out: residual kinase activity, MKK2
Sequence of MKK2 (P36507 whole entry, species assumed): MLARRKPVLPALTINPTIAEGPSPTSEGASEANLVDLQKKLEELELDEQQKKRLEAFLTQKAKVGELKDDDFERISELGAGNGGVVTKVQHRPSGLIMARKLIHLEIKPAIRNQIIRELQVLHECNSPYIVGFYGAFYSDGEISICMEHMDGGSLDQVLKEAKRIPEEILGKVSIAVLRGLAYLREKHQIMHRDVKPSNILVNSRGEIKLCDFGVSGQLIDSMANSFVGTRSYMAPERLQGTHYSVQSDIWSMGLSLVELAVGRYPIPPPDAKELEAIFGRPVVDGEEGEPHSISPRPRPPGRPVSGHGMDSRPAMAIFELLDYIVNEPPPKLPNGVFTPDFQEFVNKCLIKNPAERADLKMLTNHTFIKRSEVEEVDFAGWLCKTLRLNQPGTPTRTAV
Source text: as §1

p38b MAPK = p38b MAPK (Homo sapiens, UniProt Q15759); assay: Kinase profiling p38b MAPK; settings: 100 micromolar inhibitor concentration, 100 is no change; for remaining activity at 100 µM: read-out: residual kinase activity, p38b MAPK
Sequence of p38b MAPK (Q15759 whole entry): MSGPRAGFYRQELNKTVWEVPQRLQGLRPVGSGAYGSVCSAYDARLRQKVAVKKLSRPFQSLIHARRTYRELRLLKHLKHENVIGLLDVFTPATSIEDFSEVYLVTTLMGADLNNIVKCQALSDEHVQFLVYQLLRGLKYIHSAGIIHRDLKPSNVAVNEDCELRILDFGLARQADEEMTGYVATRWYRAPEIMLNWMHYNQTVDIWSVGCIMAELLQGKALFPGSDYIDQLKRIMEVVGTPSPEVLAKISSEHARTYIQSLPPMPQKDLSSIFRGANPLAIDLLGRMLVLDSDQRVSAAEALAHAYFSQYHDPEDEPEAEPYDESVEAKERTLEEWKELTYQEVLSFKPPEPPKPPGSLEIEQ
Source text: as §1

p38g MAPK = molecular target: T1, p38g MAPK (Homo sapiens, UniProt P53778); assay: Kinase profiling p38g MAPK; settings: 100 micromolar inhibitor concentration, 100 is no change; for remaining activity at 100 µM: read-out: residual kinase activity, p38g MAPK
T1 sequence (P53778 1-367): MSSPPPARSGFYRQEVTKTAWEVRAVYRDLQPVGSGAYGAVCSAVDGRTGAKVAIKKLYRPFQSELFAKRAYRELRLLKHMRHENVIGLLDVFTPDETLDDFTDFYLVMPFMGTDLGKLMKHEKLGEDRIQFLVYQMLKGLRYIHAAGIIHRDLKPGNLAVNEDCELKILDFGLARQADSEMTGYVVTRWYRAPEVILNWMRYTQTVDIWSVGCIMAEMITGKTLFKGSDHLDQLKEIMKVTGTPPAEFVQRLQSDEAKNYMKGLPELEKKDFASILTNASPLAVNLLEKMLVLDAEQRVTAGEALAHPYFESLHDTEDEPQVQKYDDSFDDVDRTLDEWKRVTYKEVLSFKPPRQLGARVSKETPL
Source text: as §1

PRK2 = PRK2 (Homo sapiens, UniProt Q16513); assay: Kinase profiling PRK2; settings: 100 micromolar inhibitor concentration, 100 is no change; for remaining activity at 100 µM: read-out: residual kinase activity, PRK2
Source text: as §1

PKCa = PKCa (Homo sapiens, UniProt P17252); assay: Kinase profiling PKCa; settings: 100 micromolar inhibitor concentration, 100 is no change; for remaining activity at 100 µM: read-out: residual kinase activity, PKCa
Source text: as §1

PKCγ = PKCγ (Homo sapiens, UniProt P05129); assay: Kinase profiling PKCγ; settings: 100 micromolar inhibitor concentration, 100 is no change; for remaining activity at 100 µM: read-out: residual kinase activity, PKCγ
Source text: as §1

PKD1 = molecular target: T2, PKD1 (Homo sapiens, UniProt Q15139); assay: Kinase profiling PKD1; settings: 100 micromolar inhibitor concentration, 100 is no change; for remaining activity at 100 µM: read-out: residual kinase activity, PKD1
T2 sequence (Q15139 1-912): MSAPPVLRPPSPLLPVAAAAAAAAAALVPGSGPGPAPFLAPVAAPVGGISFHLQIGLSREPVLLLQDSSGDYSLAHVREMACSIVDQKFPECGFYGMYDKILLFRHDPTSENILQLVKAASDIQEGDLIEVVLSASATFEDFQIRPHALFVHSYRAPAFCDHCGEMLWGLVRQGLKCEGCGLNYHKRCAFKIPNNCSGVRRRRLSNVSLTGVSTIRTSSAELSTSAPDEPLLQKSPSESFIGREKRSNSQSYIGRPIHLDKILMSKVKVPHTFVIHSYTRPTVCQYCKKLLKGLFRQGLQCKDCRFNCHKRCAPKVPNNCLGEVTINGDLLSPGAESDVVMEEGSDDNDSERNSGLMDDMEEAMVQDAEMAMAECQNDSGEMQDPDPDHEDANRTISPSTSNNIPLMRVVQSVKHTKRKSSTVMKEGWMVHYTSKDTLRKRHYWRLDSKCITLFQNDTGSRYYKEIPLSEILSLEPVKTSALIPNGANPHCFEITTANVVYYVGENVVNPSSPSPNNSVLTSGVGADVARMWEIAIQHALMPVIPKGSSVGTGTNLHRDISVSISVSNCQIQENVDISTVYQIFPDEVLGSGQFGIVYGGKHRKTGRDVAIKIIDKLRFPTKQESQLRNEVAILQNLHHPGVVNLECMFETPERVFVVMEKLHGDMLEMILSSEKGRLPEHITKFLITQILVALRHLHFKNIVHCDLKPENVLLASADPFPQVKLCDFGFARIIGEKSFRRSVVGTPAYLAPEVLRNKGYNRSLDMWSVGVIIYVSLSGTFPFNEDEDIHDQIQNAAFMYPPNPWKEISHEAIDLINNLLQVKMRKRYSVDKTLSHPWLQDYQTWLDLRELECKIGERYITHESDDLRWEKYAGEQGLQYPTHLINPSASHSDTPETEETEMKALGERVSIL
Source text: as §1

CAMKKb = CAMKKb (Homo sapiens, UniProt Q96RR4); assay: Kinase profiling CAMKKb; settings: 100 micromolar inhibitor concentration, 100 is no change; for remaining activity at 100 µM: read-out: residual kinase activity, CAMKKb
Source text: as §1

PLK1 = PLK1 (Homo sapiens, UniProt P53350); assay: Kinase profiling PLK1; settings: 100 micromolar inhibitor concentration, 100 is no change; for remaining activity at 100 µM: read-out: residual kinase activity, PLK1
Sequence of PLK1 (P53350 whole entry, species assumed): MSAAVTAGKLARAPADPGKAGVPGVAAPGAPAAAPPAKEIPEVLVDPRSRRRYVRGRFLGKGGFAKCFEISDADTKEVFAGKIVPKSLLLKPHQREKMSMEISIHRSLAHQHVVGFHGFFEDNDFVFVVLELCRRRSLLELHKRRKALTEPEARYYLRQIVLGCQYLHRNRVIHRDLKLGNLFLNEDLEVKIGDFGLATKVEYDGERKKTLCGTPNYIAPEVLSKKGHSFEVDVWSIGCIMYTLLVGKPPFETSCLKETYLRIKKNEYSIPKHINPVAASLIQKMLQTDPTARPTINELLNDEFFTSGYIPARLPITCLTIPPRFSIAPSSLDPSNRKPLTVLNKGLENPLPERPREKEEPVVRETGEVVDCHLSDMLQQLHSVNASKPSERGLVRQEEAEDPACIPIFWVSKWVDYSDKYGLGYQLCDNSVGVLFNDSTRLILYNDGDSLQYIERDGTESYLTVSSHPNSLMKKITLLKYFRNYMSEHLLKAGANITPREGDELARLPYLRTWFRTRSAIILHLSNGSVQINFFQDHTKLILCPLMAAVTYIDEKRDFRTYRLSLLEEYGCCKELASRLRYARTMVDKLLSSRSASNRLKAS
Source text: as §1

CK2 = assay: Kinase profiling CK2; settings: 100 micromolar inhibitor concentration; 100 is no change
Source text: as §1

TBK1 = molecular target: T3, TBK1 (Homo sapiens, UniProt Q9UHD2); assay: Kinase profiling TBK1; settings: 100 micromolar inhibitor concentration, 100 is no change; for remaining activity at 100 µM: read-out: residual kinase activity, TBK1
T3 sequence (Q9UHD2 1-729): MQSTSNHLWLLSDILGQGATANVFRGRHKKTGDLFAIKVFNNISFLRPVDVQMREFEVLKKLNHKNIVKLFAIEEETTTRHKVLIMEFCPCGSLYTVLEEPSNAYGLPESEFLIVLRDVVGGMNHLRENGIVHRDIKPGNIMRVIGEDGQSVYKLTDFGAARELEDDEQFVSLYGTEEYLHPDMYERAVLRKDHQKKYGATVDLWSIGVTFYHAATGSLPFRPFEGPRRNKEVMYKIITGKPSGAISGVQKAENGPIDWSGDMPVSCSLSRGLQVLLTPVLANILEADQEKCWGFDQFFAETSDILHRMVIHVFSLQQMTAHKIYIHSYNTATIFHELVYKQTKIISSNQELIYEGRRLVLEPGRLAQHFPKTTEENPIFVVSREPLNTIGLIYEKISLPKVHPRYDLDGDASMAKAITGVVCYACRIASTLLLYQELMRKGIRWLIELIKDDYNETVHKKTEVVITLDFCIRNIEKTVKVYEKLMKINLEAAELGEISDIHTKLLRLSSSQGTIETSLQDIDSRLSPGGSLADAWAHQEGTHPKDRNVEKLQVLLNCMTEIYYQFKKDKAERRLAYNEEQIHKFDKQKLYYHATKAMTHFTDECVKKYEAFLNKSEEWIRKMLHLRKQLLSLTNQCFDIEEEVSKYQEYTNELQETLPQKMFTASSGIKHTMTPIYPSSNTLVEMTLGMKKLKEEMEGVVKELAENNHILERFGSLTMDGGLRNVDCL
Source text: as §1

SRPK1 = SRPK1 (Homo sapiens, UniProt Q96SB4); assay: Kinase profiling SRPK1; settings: 100 micromolar inhibitor concentration, 100 is no change; for remaining activity at 100 µM: read-out: residual kinase activity, SRPK1
Source text: as §1

PAK4 = PAK4 (Homo sapiens, UniProt O96013); assay: Kinase profiling PAK4; settings: 100 micromolar inhibitor concentration, 100 is no change; for remaining activity at 100 µM: read-out: residual kinase activity, PAK4
Sequence of PAK4 (O96013 whole entry, species assumed): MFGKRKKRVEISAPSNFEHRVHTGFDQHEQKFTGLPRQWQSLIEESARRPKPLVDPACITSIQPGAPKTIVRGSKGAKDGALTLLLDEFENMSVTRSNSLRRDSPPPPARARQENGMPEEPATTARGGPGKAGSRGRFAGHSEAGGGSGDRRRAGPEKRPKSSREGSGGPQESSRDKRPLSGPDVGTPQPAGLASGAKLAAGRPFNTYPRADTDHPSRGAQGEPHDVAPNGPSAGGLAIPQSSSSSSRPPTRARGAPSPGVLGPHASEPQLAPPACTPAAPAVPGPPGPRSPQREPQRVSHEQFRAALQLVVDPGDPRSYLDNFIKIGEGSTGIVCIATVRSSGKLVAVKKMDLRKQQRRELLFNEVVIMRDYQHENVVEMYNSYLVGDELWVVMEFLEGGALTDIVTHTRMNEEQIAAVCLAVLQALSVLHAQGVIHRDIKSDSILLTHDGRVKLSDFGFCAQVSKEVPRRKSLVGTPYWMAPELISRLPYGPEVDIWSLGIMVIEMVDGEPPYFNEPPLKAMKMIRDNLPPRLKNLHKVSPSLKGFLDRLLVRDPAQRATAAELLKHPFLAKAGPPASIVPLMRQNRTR
Source text: as §1

RIPK2 = RIPK2 (Homo sapiens, UniProt O43353); assay: Kinase profiling RIPK2; settings: 100 micromolar inhibitor concentration, 100 is no change; for remaining activity at 100 µM: read-out: residual kinase activity, RIPK2
Sequence of RIPK2 (O43353 whole entry, species assumed): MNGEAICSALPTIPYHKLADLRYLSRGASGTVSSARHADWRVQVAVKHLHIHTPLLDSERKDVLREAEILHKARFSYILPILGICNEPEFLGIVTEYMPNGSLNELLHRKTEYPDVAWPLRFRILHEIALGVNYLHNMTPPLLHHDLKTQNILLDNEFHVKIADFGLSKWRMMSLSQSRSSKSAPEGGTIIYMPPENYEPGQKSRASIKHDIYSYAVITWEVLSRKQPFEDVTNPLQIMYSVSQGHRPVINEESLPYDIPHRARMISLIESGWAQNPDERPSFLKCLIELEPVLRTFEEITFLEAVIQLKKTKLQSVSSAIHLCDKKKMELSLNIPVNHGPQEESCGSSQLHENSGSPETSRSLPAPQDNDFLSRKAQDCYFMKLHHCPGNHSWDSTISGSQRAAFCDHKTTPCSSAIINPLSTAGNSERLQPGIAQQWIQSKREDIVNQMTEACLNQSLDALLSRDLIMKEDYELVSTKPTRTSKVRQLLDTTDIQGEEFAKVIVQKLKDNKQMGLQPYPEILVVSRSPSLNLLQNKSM
Source text: as §1

BTK = BTK (Homo sapiens, UniProt Q06187); assay: Kinase profiling BTK; settings: 100 micromolar inhibitor concentration, 100 is no change; for remaining activity at 100 µM: read-out: residual kinase activity, BTK
Sequence of BTK (Q06187 whole entry, species assumed): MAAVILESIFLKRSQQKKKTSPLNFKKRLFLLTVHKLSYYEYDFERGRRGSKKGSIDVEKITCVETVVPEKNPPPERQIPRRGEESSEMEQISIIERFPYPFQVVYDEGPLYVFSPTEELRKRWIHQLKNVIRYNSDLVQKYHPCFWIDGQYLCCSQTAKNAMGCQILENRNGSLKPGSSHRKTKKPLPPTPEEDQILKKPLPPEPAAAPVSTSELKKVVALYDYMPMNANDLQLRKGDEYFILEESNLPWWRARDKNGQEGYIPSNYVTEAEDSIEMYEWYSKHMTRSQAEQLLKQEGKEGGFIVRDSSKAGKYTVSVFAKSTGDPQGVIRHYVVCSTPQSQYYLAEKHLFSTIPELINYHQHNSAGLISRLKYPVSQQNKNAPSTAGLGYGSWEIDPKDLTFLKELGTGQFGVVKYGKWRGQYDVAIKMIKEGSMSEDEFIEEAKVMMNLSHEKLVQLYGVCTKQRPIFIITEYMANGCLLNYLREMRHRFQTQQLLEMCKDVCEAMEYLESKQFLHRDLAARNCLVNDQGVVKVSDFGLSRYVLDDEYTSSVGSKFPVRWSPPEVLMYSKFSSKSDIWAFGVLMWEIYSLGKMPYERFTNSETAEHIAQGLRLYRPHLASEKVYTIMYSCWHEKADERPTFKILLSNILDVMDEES
Source text: as §1

EPH-A2 = EPH-A2 (Homo sapiens, UniProt P29317); assay: Kinase profiling EPH-A2; settings: 100 micromolar inhibitor concentration, 100 is no change; for remaining activity at 100 µM: read-out: residual kinase activity, EPH-A2
Source text: as §1

Sequence of MKK1 (Q02750 whole entry, species assumed): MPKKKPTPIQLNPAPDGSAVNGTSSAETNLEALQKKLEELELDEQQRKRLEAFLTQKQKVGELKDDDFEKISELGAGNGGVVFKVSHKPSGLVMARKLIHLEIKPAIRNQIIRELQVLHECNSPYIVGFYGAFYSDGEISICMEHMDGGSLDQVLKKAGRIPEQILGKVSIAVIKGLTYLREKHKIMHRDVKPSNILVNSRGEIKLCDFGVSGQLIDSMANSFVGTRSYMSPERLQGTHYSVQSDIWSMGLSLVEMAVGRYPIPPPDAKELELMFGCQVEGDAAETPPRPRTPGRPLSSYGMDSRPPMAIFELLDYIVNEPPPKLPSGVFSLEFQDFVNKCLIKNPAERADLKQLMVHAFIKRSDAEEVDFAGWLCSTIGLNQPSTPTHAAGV

SMILES | remaining activity at 100 µM (MKK1) | remaining activity at 100 µM (MKK2) | remaining activity at 100 µM (p38b MAPK) | remaining activity at 100 µM (p38g MAPK) | remaining activity at 100 µM (PRK2) | remaining activity at 100 µM (PKCa) | remaining activity at 100 µM (PKCγ) | remaining activity at 100 µM (PKD1) | remaining activity at 100 µM (CAMKKb) | remaining activity at 100 µM (PLK1) | residual kinase activity, CK2 (CK2) | remaining activity at 100 µM (TBK1) | remaining activity at 100 µM (SRPK1) | remaining activity at 100 µM (PAK4) | remaining activity at 100 µM (RIPK2) | remaining activity at 100 µM (BTK) | remaining activity at 100 µM (EPH-A2) | residual kinase activity, MKK1 (MKK1) | residual kinase activity, MKK2 (MKK2) | residual kinase activity, p38b MAPK (p38b MAPK) | also measured
CC(=O)Nc1nc2ccc(O)cc2s1 [Compound 01-71] | 35% | 48% | 106% | 84% | 36% | 77% | 76% | 37% | 57% | 97% | 23 | 43% | 44% | 51% | 22% | 69% | 66% | – | – | – | –
O=C(Nc1nc2ccc(O)cc2s1)c1ccccc1 [Compound 03-60] | – | – | – | – | – | – | – | – | – | – | 16 | – | – | – | – | – | – | 49 | 90 | 76 | residual kinase activity, p38g MAPK (p38g MAPK): 58; residual kinase activity, PRK2 (PRK2): 27; residual kinase activity, PKCa (PKCa): 97; residual kinase activity, PKCγ (PKCγ): 83; residual kinase activity, PKD1 (PKD1): 47; residual kinase activity, CAMKKb (CAMKKb): 37; residual kinase activity, PLK1 (PLK1): 74; residual kinase activity, TBK1 (TBK1): 36; residual kinase activity, SRPK1 (SRPK1): 3; residual kinase activity, PAK4 (PAK4): 35; residual kinase activity, RIPK2 (RIPK2): 12; residual kinase activity, BTK (BTK): 59; residual kinase activity, EPH-A2 (EPH-A2): 77
CC(=O)Nc1nc2ccc(C#N)cc2s1 [Compound 01-94] | 34% | 54% | 100% | 82% | 70% | 93% | 83% | 97% | 35% | 108% | 66 | 41% | 47% | 34% | 17% | 98% | 73% | – | – | – | –
COc1ccc2sc(NC(C)=O)nc2c1 [Compound 03-21] | 64% | 90% | 101% | 56% | 67% | 101% | 103% | 59% | 87% | 90% | 87 | 81% | 84% | 94% | 29% | 102% | 89% | – | – | – | –
O=C(Nc1nc2ccc(O)cc2s1)c1ccncc1 [Compound 08-42] | – | – | – | – | – | – | – | – | – | – | 50 | – | – | – | – | – | – | 87 | 72 | 86 | residual kinase activity, p38g MAPK (p38g MAPK): 87; residual kinase activity, PRK2 (PRK2): 44; residual kinase activity, PKCa (PKCa): 81; residual kinase activity, PKCγ (PKCγ): 93; residual kinase activity, PKD1 (PKD1): 63; residual kinase activity, CAMKKb (CAMKKb): 68; residual kinase activity, PLK1 (PLK1): 74; residual kinase activity, TBK1 (TBK1): 61; residual kinase activity, SRPK1 (SRPK1): 19; residual kinase activity, PAK4 (PAK4): 69; residual kinase activity, RIPK2 (RIPK2): 30; residual kinase activity, BTK (BTK): 59; residual kinase activity, EPH-A2 (EPH-A2): 77
